The results in this text go back to PMC10781750, “Structural basis of antiphage immunity generated by a prokaryotic Argonaute-associated SPARSA system” (Nature Communications, 2024).

Assay [1] has as its target T1, SPARSA (GsSir2/pAgo heterodimer) (Geobacter sulfurreducens, UniProt Q74DF6).
T1 construct: gene GSU1360; full-length GsSir2 and pAgo coexpressed in E. coli BL21(DE3); 6xHis-SPARSA (also His-SUMO version, SUMO cut by TEV); 1:1 heterodimer; with Short prokaryotic Argonaute (Piwi domain-containing protein)
Nature of the assay: NADase assay, residual NAD+ by NAD/NADH quantitation kit (absorbance […] nm). Type of assay: biochemical. To be noted: 1 uM SPARSA, 10 uM NAD+, 2 uM gRNA and tDNA (required for activity), 10 mM HEPES pH 7.5, 125 mM KCl, 37 C.

The target in assay [2] is T1, SPARSA (GsSir2/pAgo heterodimer). Nature of the assay: cryo-EM structures ([…] A without, […] A with gRNA/tDNA). Type of assay: binding. To be noted: endogenous NAD+ copurified; bound in Sir2 domain cleft between Rossmann fold and small domain, near N142 and H186; seen without and with gRNA/tDNA.

T1 sequence (Q74DF6 1-587): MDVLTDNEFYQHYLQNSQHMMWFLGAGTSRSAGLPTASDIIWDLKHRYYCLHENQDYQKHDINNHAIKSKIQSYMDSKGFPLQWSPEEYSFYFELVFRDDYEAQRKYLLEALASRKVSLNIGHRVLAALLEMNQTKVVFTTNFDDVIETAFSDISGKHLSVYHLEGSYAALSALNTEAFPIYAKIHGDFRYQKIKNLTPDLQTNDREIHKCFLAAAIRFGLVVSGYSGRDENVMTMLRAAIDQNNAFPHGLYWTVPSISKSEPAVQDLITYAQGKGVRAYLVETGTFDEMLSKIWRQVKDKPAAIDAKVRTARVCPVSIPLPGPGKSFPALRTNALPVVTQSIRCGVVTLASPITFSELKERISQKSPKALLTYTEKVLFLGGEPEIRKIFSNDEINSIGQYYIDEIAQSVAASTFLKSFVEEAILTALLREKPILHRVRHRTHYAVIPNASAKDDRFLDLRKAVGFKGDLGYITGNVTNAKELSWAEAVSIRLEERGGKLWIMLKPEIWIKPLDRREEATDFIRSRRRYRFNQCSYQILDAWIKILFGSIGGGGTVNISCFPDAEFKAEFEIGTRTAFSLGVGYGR
T1 sequence (Q74DF5 1-473 partner): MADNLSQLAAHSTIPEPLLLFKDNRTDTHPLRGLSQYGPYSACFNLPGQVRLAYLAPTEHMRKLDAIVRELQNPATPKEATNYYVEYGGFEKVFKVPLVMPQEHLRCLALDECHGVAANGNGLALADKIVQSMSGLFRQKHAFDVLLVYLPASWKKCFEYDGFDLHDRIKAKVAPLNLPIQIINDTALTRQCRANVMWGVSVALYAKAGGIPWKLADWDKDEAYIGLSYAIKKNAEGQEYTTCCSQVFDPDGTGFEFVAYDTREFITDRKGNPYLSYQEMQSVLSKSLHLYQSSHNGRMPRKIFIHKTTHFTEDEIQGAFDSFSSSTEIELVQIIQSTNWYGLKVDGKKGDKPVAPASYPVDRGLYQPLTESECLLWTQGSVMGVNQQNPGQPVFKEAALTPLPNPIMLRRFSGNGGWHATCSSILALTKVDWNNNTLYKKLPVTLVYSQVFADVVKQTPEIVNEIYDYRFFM

Take `NC(=O)c1ccc[n+]([C@@H]2O[C@H](COP(=O)([O-])OP(=O)(O)OC[C@H]3O[C@@H](n4cnc5c(N)ncnc54)[C@H](O)[C@@H]3O)[C@@H](O)[C@H]2O)c1` [NAD^+]: in assay [1], the “NADase assay, residual NAD+ by NAD/NADH quantitation kit (absorbance 450 nm)” value is “nearly no NAD^+ remained in the wild-type SPARSA”. Besides, the “cryo-EM structures (3.6 A without, 3.1 A with gRNA/tDNA)” value in assay [2] is “a density within the crevice near the catalytic residues N142 and H186 was observed”.
